Laboratory results as given in patent US8927717B1, “Thiochromeno[2,3-c]quinolin-12-one derivatives, preparation method and application thereof” (National Defense Medical Center, priority 2014, dated 2015).

What was measured:
[1] = target: T1, TOP II (Topoisomerase II) (Homo sapiens, UniProt P11388); experiment: TOP II-catalyzed relaxation of plasmid DNA assay; assay type: biochemical
T1 construct: purchased TopoGEN TG-2000H-1
Description: We also performed TOP II-catalyzed relaxation of plasmid DNA assays (FIG. 5-7) to evaluate if compounds could inhibit TOP II. […] The IC50 value of compounds 7, N7, N8, N14, N15, N18, and N19 were about 10, 10, 1, 10, 5, 1, and 1 μM, respectively (detect by TopoGEN TG2005H, TG-2000H-1).

SK-MEL-5 = assay type: cell-based
M14 = assay type: cell-based
HCC-2998 = assay type: cell-based
HCT-116 = assay type: cell-based
HOP-92 = assay type: cell-based; details: HOP-92, five dose
CCRF-CEM = assay type: cell-based
IGROV1 = assay type: cell-based
SK-OV-3 = assay type: cell-based
PC-3 = assay type: cell-based
SF-539 = assay type: cell-based
HL-60(TB) = assay type: cell-based; details: Leukemia; 10^−5 molar; 48 hours; SRB
TOP I (Topoisomerase I) [2] = target: T2, TOP I (Topoisomerase I) (Homo sapiens, UniProt P11387); experiment: TOP I mediated supercoiled DNA relaxation assay; assay type: biochemical; details: five different concentrations; TopoGEN TG2005H, TG-2000H-1
T2 construct: purchased TopoGEN TG2005H
T2 sequence (P11387 1-765): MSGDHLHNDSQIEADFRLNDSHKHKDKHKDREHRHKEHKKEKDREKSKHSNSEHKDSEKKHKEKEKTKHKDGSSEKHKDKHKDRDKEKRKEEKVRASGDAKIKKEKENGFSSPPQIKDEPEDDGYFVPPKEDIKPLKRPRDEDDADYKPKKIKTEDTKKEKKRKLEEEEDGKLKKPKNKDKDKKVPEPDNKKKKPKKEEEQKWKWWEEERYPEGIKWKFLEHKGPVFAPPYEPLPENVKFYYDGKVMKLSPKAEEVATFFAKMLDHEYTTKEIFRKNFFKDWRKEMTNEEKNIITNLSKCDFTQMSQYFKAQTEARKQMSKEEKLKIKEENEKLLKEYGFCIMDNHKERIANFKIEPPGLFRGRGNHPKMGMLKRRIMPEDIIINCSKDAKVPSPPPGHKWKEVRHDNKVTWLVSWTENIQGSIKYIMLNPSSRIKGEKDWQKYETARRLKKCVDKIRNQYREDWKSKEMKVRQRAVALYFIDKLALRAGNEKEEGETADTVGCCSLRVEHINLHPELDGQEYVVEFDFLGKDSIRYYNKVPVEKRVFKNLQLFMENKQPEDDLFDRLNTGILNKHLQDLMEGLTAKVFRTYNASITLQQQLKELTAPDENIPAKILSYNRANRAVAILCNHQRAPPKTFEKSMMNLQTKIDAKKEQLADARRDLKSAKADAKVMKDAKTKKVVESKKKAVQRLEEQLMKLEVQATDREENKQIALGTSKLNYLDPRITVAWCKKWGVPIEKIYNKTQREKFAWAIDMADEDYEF

COLO 205 = assay type: cell-based
OVCAR-4 = assay type: cell-based
UACC-257 = assay type: cell-based
TOP I (Topoisomerase I) [3] = target: T2, TOP I (Topoisomerase I); experiment: TOP I mediated supercoiled DNA relaxation assay; assay type: biochemical; details: primary assay at 25 and/or 50 μM
Description: According to the cell cytotoxicity, compounds 5, 7, 8, 16, 19, N2, N7, N8, N9, N14-N19, and N25 were also selected for primary TOP I and II activities assays at 25 and/or 50 μM (FIG. 2-4).

OVCAR-3 = assay type: cell-based; details: Ovarian cancer; 10^−5 molar; 48 hours; SRB
BT-549 = assay type: cell-based
NCI-H460 = assay type: cell-based
RPMI-8226 = assay type: cell-based
SK-MEL-2 = assay type: cell-based; details: SK-Mel-2, five dose
CAKI-1 = assay type: cell-based
[4] = Homo sapiens, SK-MEL-5, five dose
[5] = Melanoma, 10^−5 molar, 48 hours, SRB
[6] = Colon cancer, 10^−5 molar, 48 hours, SRB
[7] = Homo sapiens, HCC-2998, five dose
[8] = Homo sapiens, HCT-116, five dose
[9] = Leukemia, 10^−5 molar, 48 hours, SRB
[10] = Ovarian cancer, 10^−5 molar, 48 hours, SRB
[11] = Homo sapiens, SF-539, five dose
[12] = Homo sapiens, NCI-H460, five dose

T1 sequence (P11388 whole entry): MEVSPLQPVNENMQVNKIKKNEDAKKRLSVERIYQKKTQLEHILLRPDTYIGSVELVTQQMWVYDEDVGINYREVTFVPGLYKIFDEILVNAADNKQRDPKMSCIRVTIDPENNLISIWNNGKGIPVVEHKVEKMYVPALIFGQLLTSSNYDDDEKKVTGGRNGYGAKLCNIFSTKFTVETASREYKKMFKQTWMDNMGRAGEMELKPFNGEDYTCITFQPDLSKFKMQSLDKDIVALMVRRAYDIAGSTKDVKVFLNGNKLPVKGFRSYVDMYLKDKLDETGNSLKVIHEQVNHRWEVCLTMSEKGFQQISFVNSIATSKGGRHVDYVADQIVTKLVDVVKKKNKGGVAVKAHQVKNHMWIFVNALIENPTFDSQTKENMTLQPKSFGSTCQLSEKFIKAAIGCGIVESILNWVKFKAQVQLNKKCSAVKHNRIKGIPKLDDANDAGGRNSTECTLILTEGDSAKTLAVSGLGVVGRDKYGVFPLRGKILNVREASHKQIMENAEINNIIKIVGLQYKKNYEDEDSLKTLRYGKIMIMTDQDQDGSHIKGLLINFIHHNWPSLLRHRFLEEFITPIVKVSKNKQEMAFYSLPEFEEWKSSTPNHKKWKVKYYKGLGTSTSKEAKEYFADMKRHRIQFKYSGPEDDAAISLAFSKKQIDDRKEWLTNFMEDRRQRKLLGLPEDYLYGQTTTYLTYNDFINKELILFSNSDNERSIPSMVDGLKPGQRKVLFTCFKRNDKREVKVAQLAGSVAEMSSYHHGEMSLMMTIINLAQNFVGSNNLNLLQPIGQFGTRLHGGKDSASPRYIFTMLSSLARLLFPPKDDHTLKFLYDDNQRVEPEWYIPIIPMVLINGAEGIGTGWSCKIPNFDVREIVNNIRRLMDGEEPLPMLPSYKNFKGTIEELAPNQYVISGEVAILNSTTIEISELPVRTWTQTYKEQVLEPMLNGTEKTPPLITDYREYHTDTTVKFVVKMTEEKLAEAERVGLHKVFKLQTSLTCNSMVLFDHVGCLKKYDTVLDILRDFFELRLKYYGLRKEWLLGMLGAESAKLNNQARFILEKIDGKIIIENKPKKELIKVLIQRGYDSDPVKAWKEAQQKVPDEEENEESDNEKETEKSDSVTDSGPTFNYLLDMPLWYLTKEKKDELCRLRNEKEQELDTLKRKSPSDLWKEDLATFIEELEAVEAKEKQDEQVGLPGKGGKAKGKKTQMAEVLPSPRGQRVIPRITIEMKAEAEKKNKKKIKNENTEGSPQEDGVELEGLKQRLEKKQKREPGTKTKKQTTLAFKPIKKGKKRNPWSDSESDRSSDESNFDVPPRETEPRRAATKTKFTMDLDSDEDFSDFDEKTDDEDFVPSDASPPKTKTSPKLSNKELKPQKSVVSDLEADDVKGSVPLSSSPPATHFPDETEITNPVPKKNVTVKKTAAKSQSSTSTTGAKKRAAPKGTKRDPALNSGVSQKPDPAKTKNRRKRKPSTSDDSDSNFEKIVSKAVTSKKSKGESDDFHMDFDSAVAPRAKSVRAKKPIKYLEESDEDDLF

NCCNc1nc2ccccc2c2c(=O)c3cc(Cl)ccc3sc12 [Compound N14, 6-((2-Aminoethyl)amino)-10-chloro-12H-thiochromeno[2,3-c]quinolin-12-one]
IC50 ([1]; five different concentrations, TopoGEN TG2005H, TG-2000H-1, read-out: IC50 value, TOP II mediated supercoiled DNA relaxation): ~10 µM | inhibitory effect in TOP II relaxation assay compared with VP-16 ([1]; primary assay at 25 and/or 50 μM): more potent inhibitory effects than the positive agent VP-16 | GI50 (SK-MEL-5; [4]): 1.51 µM | LC50 (SK-MEL-5; [4]): 5.44 µM | Growth percent SK-MEL-5 (SK-MEL-5; [5]): 68.64% | TGI (SK-MEL-5; SK-MEL-5, five dose): 2.87 µM | GI50 (M14; Homo sapiens, M14, five dose): 1.83 µM | LC50 (M14; Homo sapiens, M14, five dose): 6.14 µM | TGI (M14; M14, five dose): 3.35 µM | Growth percent M14 (M14; [5]): −55.62% | Growth percent HCC-2998 (HCC-2998; [6]): −90.43% | TGI (HCC-2998; HCC-2998, five dose): 4.06 µM | GI50 (HCC-2998; [7]): 2.03 µM | LC50 (HCC-2998; [7]): 8.14 µM | Growth percent HCT-116 (HCT-116; [6]): −48.19% | TGI (HCT-116; HCT-116, five dose): 2.99 µM | GI50 (HCT-116; [8]): 1.63 µM | LC50 (concentration killing 50% of cells) (HCT-116; [8]): 5.47 µM | TGI (HOP-92): 3.05 µM | GI50 (HOP-92; Homo sapiens): 1.03 µM | LC50 (HOP-92; Homo sapiens): 9.04 µM | TGI (CCRF-CEM; CCRF-CEM, five dose): 3.65 µM | GI50 (CCRF-CEM; Homo sapiens, CCRF-CEM, five dose): 1.75 µM | CC50 (CCRF-CEM; Homo sapiens, CCRF-CEM, five dose, read-out: LC50 (the source's name)): 7.64 µM | Growth percent CCRF-CEM (CCRF-CEM; [9]): −39.61% | GI50 (IGROV1; Homo sapiens, IGROV-1, IGROV1, five dose): 1.61 µM | TGI (IGROV1; IGROV1, five dose): 3.45 µM | Growth percent IGROV1 (IGROV1; [10]): −77.31% | GI50 (SK-OV-3; Homo sapiens, SK-OV-3, five dose): 1.78 µM | CC50 (SK-OV-3; Homo sapiens, SK-OV-3, five dose, read-out: LC50 (the source's name)): 6.42 µM | Growth percent SK-OV-3 (SK-OV-3; [10]): 12.25% | TGI (SK-OV-3; SK-OV-3, five dose): 3.38 µM | GI50 (PC-3; Homo sapiens, PC-3, five dose): 1.55 µM | CC50 (PC-3; Homo sapiens, PC-3, five dose, read-out: LC50 (the source's name)): 5.76 µM | TGI (PC-3; PC-3, five dose): 2.99 µM | Growth percent PC-3 (PC-3; Prostate cancer, 10^−5 molar, 48 hours, SRB): −97.71% | Growth percent SF-539 (SF-539; CNS cancer, 10^−5 molar, 48 hours, SRB): 2.13% | GI50 (SF-539; [11]): 1.57 µM | LC50 (SF-539; [11]): 5.52 µM | TGI (SF-539; SF-539, five dose): 2.95 µM | Growth percent HL-60(TB) (HL-60(TB)): −47.50% | IC50 (TOP I (Topoisomerase I) [2]): ~1 µM | TGI (COLO 205; COLO 205, five dose): 3.57 µM | Growth percent COLO 205 (COLO 205; [6]): −87.22% | GI50 (COLO 205; Homo sapiens, COLO 205, five dose): 1.73 µM | GI50 (OVCAR-4; Homo sapiens, OVCAR-4, five dose): 1.52 µM | CC50 (OVCAR-4; Homo sapiens, OVCAR-4, five dose, read-out: LC50 (the source's name)): 6.54 µM | TGI (OVCAR-4; OVCAR-4, five dose): 3.15 µM | Growth percent OVCAR-4 (OVCAR-4; [10]): −20.15% | GI50 (UACC-257; Homo sapiens, UACC-257, five dose): 1.9 µM | CC50 (UACC-257; Homo sapiens, UACC-257, five dose, read-out: LC50 (the source's name)): 6.7 µM | Growth percent UACC-257 (UACC-257; [5]): −67.35% | TGI (UACC-257; UACC-257, five dose): 3.56 µM | inhibitory effect in TOP I activity assay compared with CPT (TOP I (Topoisomerase I) [3]): more potent inhibitory effects than CPT | Growth percent OVCAR-3 (OVCAR-3): −84.15% | TGI (BT-549; BT-549, five dose): 5.35 µM | Growth percent BT-549 (BT-549; Breast cancer, 10^−5 molar, 48 hours, SRB): 78.49% | GI50 (BT-549; Homo sapiens, BT-549, five dose): 2.15 µM | CC50 (BT-549; Homo sapiens, BT-549, five dose, read-out: LC50 (the source's name)): 62 µM | GI50 (NCI-H460; [12]): 1.69 µM | LC50 (NCI-H460; [12]): 7.05 µM | TGI (NCI-H460; NCI-H460, five dose): 3.45 µM | Growth percent NCI-H460 (NCI-H460; Non-small cell lung cancer, 10^−5 molar, 48 hours, SRB): −62.39% | GI50 (RPMI-8226; Homo sapiens, RPMI-8226, five dose): 2.26 µM | CC50 (RPMI-8226; Homo sapiens, RPMI-8226, five dose, read-out: LC50 (the source's name)): 62.3 µM | Growth percent RPMI-8226 (RPMI-8226; [9]): −27.48% | TGI (RPMI-8226; RPMI-8226, five dose): 4.92 µM | GI50 (SK-MEL-2; Homo sapiens): 1.98 µM | LC50 (SK-MEL-2; Homo sapiens): 7.87 µM | TGI (SK-MEL-2): 3.95 µM | TGI (CAKI-1; CAKI-1, five dose): 3.27 µM | GI50 (CAKI-1; Homo sapiens, CAKI-1, five dose): 1.56 µM | Growth percent CAKI-1 (CAKI-1; Renal cancer, 10^−5 molar, 48 hours, SRB): −75.30%
